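The compound was tested at five concentrations on cells cultured in 96-well plates, with a 48-hour exposure period. GI50 is the concentration that inhibits growth by half. Definition used: TGI = concentration required for complete inhibition of growth.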
Tests used:
Assay in all cases: inhibition of tumour cell growth, NCI panel, 48 h
[1] = test system: KM12 colon
[2] = test system: NCI-H522 lung
[3] = test system: SK-MEL-2 melanoma
[4] = test system: HCC-2998 colon
[5] = test system: EKVX NSCLC
[6] = test system: LOX IMVI melanoma
[7] = test system: HOP-62 NSCLC
[8] = test system: OVCAR-4 ovarian
[9] = test system: SNB-19 CNS
[10] = test system: PC-3 prostate

CC1(C)C2CCC13CS(=O)(=O)N1O[C@]13C(=O)O2 (stereo partly specified)
TGI [1]: > 100 µM
TGI [2]: > 100 µM
TGI [3]: > 100 µM
TGI [4]: > 100 µM
TGI [5]: > 100 µM
TGI [6]: > 100 µM
TGI [7]: > 100 µM
TGI [8]: > 100 µM
TGI [9]: > 100 µM

COc1cc2c(c(OC)c1OC)-c1ccc(SC)c(=O)cc1[C@@H](NC1OC(CO)C(O)C(O)C1O)CC2 (stereo partly specified)
GI50 [1]: 24 nM
GI50 [3]: 23.7 nM
TGI [3]: 0.081 µM
GI50 [10]: 34.7 nM
TGI [10]: > 100 µM
GI50 [4]: 0.0368 µM
TGI [4]: > 100 µM
GI50 [6]: 37 nM
TGI [6]: > 100 µM
TGI [7]: > 100 µM
GI50 [8]: 0.226 µM
TGI [8]: > 100 µM
GI50 [9]: 0.0797 µM
TGI [9]: > 100 µM

O=C([CH-]C(=O)c1ccccc1)c1ccccc1.O=C([CH-]C(=O)c1ccccc1)c1ccccc1.[OH-].[OH-].[Ti+4]
GI50 [1]: > 100000 nM
TGI [1]: > 100 µM
GI50 [2]: 24.2 µM
TGI [2]: 69.7 µM
GI50 [3]: 76500 nM
TGI [3]: > 100 µM
GI50 [4]: > 100 µM
TGI [4]: > 100 µM
GI50 [5]: 94.9 µM
TGI [5]: > 100 µM
GI50 [7]: 27.1 µM
TGI [7]: > 100 µM
GI50 [9]: 39.9 µM
TGI [9]: > 100 µM

COc1ccc(-c2cc(=O)c3c(OC)c(OC)c(OC)c(OC)c3o2)cc1
TGI [2]: 66.5 µM
TGI [3]: > 100 µM
TGI [4]: > 100 µM
TGI [5]: > 100 µM
TGI [6]: > 100 µM
TGI [7]: > 100 µM
TGI [8]: > 100 µM
TGI [9]: > 100 µM

C=C1CCC2[C@@H](CCC3[C@]2(C)CCC[C@]3(C)C(=O)OC)[C@@H]1CC=O (stereo partly specified)
GI50 [1]: 39300 nM
TGI [1]: > 100 µM
GI50 [2]: > 100 µM
TGI [2]: > 100 µM
TGI [3]: 91.7 µM
TGI [4]: > 100 µM
TGI [5]: 77.6 µM
GI50 [7]: > 100 µM
TGI [7]: > 100 µM
TGI [8]: 85.2 µM
GI50 [9]: 47.5 µM
TGI [9]: > 100 µM

BrCc1ccc(CBr)cc1
GI50 [1]: 1290 nM
TGI [1]: 6.71 µM
GI50 [2]: 18.2 µM
TGI [2]: 52.2 µM
GI50 [10]: 5300 nM
GI50 [4]: 6.4 µM
TGI [4]: 15.3 µM
GI50 [5]: 10.5 µM
TGI [5]: 25.7 µM
GI50 [6]: 4510 nM
TGI [6]: > 100 µM
GI50 [7]: 4.23 µM
TGI [7]: 9.68 µM
GI50 [8]: 8.96 µM
TGI [8]: 22.4 µM
GI50 [9]: 0.528 µM
TGI [9]: 25.8 µM

c1ccc(P(=Nc2ccccc2N=P(c2ccccc2)(c2ccccc2)c2ccccc2)(c2ccccc2)c2ccccc2)cc1
TGI [1]: 12.8 µM
TGI [2]: 2.24 µM
TGI [4]: 12.8 µM
TGI [5]: 15 µM
TGI [6]: 13.9 µM
TGI [7]: 2.73 µM
TGI [8]: 14.9 µM
TGI [9]: 16.9 µM

Cc1ccc(C2=Nc3ccccc3SC(c3cccc([N+](=O)[O-])c3)C2)cc1 (stereo unspecified)
TGI [1]: 36.8 µM
TGI [2]: 64.6 µM
TGI [3]: > 100 µM
TGI [10]: > 100 µM
TGI [5]: > 100 µM
TGI [7]: > 100 µM
TGI [8]: > 100 µM
TGI [9]: > 100 µM

COC(=O)C(C)(C)N=CN(C)C
TGI [1]: > 100 µM
TGI [2]: > 100 µM
TGI [3]: > 100 µM
TGI [4]: > 100 µM
TGI [5]: > 100 µM
TGI [6]: > 100 µM
TGI [7]: > 100 µM
TGI [8]: > 100 µM
TGI [9]: > 100 µM

O=C(NC1CCCC1=O)c1ccccc1 (stereo unspecified)
TGI [1]: > 100 µM
TGI [3]: > 100 µM
TGI [5]: > 100 µM
TGI [7]: > 100 µM
TGI [8]: > 100 µM
TGI [9]: > 100 µM

CC1(C)OCC(C(O)C2OC(C)(C)OC2/C=N\O)O1 (stereo unspecified)
TGI [1]: > 100 µM
TGI [2]: > 100 µM
TGI [3]: > 100 µM
TGI [4]: > 100 µM
TGI [5]: > 100 µM
TGI [6]: > 100 µM
TGI [7]: > 100 µM
TGI [9]: > 100 µM

CCOc1nc(N)nc(C)c1N=Nc1ccc(Cl)cc1
TGI [1]: > 100 µM
TGI [2]: > 100 µM
TGI [3]: > 100 µM
TGI [10]: > 100 µM
TGI [5]: > 100 µM
TGI [6]: > 100 µM
TGI [7]: > 100 µM
TGI [8]: > 100 µM
TGI [9]: > 100 µM

CNS(=O)(=O)NNS(=O)(=O)c1ccc(Cl)cc1
TGI [1]: > 100 µM
TGI [2]: > 100 µM
TGI [3]: > 100 µM
TGI [4]: > 100 µM
TGI [5]: > 100 µM
TGI [7]: > 100 µM
TGI [8]: > 100 µM
TGI [9]: > 100 µM

Cc1ccc(S(=O)OC2C3CC4CC(C3)CC2C4)cc1 (stereo unspecified)
TGI [1]: > 100 µM
TGI [2]: > 100 µM
TGI [4]: > 100 µM
TGI [5]: > 100 µM
TGI [6]: > 100 µM
TGI [7]: > 100 µM
TGI [8]: > 100 µM
TGI [9]: > 100 µM

CN(C)c1ccc(/C=C2\C=Cc3ccccc32)cc1
TGI [1]: > 100 µM
TGI [2]: 52.3 µM
TGI [3]: > 100 µM
TGI [4]: > 100 µM
TGI [6]: > 100 µM
TGI [7]: > 100 µM
TGI [8]: > 100 µM
TGI [9]: > 100 µM

CCN(CCO)CC(C)Nc1ccc([N+](=O)[O-])c2sc3ccccc3c(=O)c12 (stereo unspecified)
GI50 [1]: 1470 nM
TGI [1]: 4 µM
GI50 [3]: 1230 nM
TGI [3]: 3.64 µM
GI50 [10]: 1330 nM
TGI [10]: 4.55 µM
GI50 [5]: 1.67 µM
TGI [5]: 6.28 µM
GI50 [6]: 746 nM
TGI [6]: 2.69 µM
GI50 [7]: 1.27 µM
TGI [7]: 5.55 µM
GI50 [8]: 3.32 µM
TGI [8]: 15.7 µM
GI50 [9]: 2.34 µM
TGI [9]: 19 µM

CN(C)CC1CCCC1=O (stereo unspecified)
TGI [1]: 5.85 µM
TGI [3]: 19.3 µM
TGI [10]: 22.6 µM
TGI [4]: 4.44 µM
TGI [5]: 3.59 µM
TGI [6]: 4 µM
TGI [7]: 31.3 µM
TGI [8]: 5.58 µM
TGI [9]: 50 µM

CCCCCCN(N)C(=O)CC#N
TGI [1]: > 100 µM
TGI [2]: > 100 µM
TGI [4]: > 100 µM
TGI [5]: > 100 µM
TGI [6]: > 100 µM
TGI [7]: > 100 µM
TGI [8]: > 100 µM

CC1CN1c1c(C(=O)/C=C/c2ccccc2)c(-c2ccccc2)nn(C)c1=O (stereo unspecified)
TGI [1]: 44.2 µM
TGI [2]: 26.2 µM
TGI [3]: 29.9 µM
TGI [4]: 29.9 µM
TGI [5]: 48.2 µM
TGI [6]: 31.1 µM
TGI [7]: 46.3 µM
TGI [8]: 31.9 µM
TGI [9]: 50.2 µM

N/N=C1\CC(=O)NC(=O)N1
TGI [1]: > 100 µM
TGI [2]: > 100 µM
TGI [3]: > 100 µM
TGI [10]: > 100 µM
TGI [5]: > 100 µM
TGI [6]: > 100 µM
TGI [7]: > 100 µM
TGI [8]: > 100 µM
TGI [9]: > 100 µM

Fc1cccc(C2SCc3nc4ccccc4n32)c1F (stereo unspecified)
TGI [1]: > 100 µM
TGI [2]: > 100 µM
TGI [3]: 76.4 µM
TGI [4]: > 100 µM
TGI [5]: > 100 µM
TGI [6]: > 100 µM
TGI [7]: > 100 µM
TGI [8]: > 100 µM
TGI [9]: > 100 µM

N#Cc1ccc(N=Cc2c([O-])ccc3ccccc23)cc1.[C-]#[O+].[C-]#[O+].[Ir]
GI50 [1]: 16600 nM
TGI [1]: 30.2 µM
GI50 [2]: 1.13 µM
TGI [2]: 2.45 µM
GI50 [4]: 14.7 µM
TGI [4]: 27.8 µM
GI50 [5]: 11.5 µM
TGI [5]: 25 µM
GI50 [6]: 9880 nM
TGI [6]: 22.4 µM
GI50 [7]: 20.6 µM
TGI [7]: 42 µM
GI50 [8]: 3.85 µM
TGI [8]: 17.7 µM
GI50 [9]: 18.4 µM
TGI [9]: 33.2 µM
